The text below walks through data of PMC8295196 (Organic & biomolecular chemistry, 2021).

The target in series [1] is T1, Cytidine Deaminase (CDA) (Homo sapiens, UniProt P32320, K27Q). As to the kind of experiment: CDA-mediated deamination monitored by absorbance. The note with it: for k1 / k2: Michaelis-Menten differential equations; for k−1: Michaelis-Menten, values assumed to be ≤10% of k1 values; for Km: calculated from k1, k−1 and k2.
The target in series [2] is T1, Cytidine Deaminase (CDA). The series is described as follows: CDA-mediated deamination monitored by emission. As to conditions: for k1 / k2: Michaelis-Menten differential equations; for k−1: Michaelis-Menten, values assumed to be ≤10% of k1 values; for Km: calculated from k1, k−1 and k2.
Series [3] deals with T1, Cytidine Deaminase (CDA). The series is described as follows: HPLC analysis of enzymatic deamination reactions. The class given is biochemical. As to conditions: after 60 minutes.
[4] abbreviates: pseudo-first order fit to absorption curves.
Where [5] appears, read: pseudo-first order fit, absorption (Abs).
Setting [6] is: pseudo-first order fit to emission curves.
[7] abbreviates: pseudo-first order fit, emission (Em).

T1 sequence (P32320 whole entry K27Q): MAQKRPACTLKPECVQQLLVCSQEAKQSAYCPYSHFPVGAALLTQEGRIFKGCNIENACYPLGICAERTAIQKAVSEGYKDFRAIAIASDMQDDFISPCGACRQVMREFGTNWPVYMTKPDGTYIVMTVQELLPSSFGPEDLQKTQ

`Cc1sc([C@@H]2O[C@H](CO)[C@@H](O)[C@H]2O)c2[nH]c(=O)nc(N)c12` [^mthC]: at Cytidine Deaminase (CDA) [1] (absorption (Abs)), the k1 worked out at 750000 ± 160000 M⁻¹ s⁻¹; the k2 is 56 ± 5.9 s⁻¹; the “k−1” value came out at 0.075 s⁻¹; the Km (as a rule, the concentration of substrate that gives half-maximal velocity) was 75 µM. For the same molecule, at Cytidine Deaminase (CDA) [1] (setting [4]), the kapp came out at 6.1 ± 0.2 s^–1. Further, on Cytidine Deaminase (CDA) [1] (setting [5]), the kapp is 6.1 ± 0.2 x 10^−3 s^−1 and the t1/2 was determined as 1.83 ± 0.033 min. At Cytidine Deaminase (CDA) [2] (emission (Em)), the k1 turned out to be 710000 ± 180000 M⁻¹ s⁻¹, the k2 worked out at 45 ± 2.3 s⁻¹, the “k−1” value stood at 0.071 s⁻¹ and the Km was 63 µM. On Cytidine Deaminase (CDA) [2] (setting [6]), this molecule displayed a kapp of 5.7 ± 0.1 s^–1. Further, on Cytidine Deaminase (CDA) [2] (setting [7]), the kapp is listed as 5.7 ± 0.1 x 10^−3 s^−1 and the t1/2 was found to be 2 ± 0.13 min. Besides, the “conversion to corresponding U analogue by CDA (HPLC)” value at Cytidine Deaminase (CDA) [3] is recorded as “complete conversion”.

For `Nc1nc(=O)[nH]c2c([C@@H]3O[C@H](CO)[C@@H](O)[C@H]3O)scc12` [^thC], the k1 at Cytidine Deaminase (CDA) [1] (absorption (Abs)) was 1.01e+06 ± 470000 M⁻¹ s⁻¹; at Cytidine Deaminase (CDA) [2] (emission (Em)) it was 950000 ± 140000 M⁻¹ s⁻¹. The k2 at Cytidine Deaminase (CDA) [1] (absorption (Abs)) was determined as 34 ± 7.2 s⁻¹; on Cytidine Deaminase (CDA) [2] (emission (Em)) it was 46 ± 5.3 s⁻¹. Also, the “k−1” value on Cytidine Deaminase (CDA) [1] (absorption (Abs)) was 0.101 s⁻¹; at Cytidine Deaminase (CDA) [2] (emission (Em)) it was 0.095 s⁻¹. In addition, the Km was 34 µM on Cytidine Deaminase (CDA) [1] (absorption (Abs)) and 49 µM at Cytidine Deaminase (CDA) [2] (emission (Em)). The kapp was 7.2 ± 0.2 s^–1 on Cytidine Deaminase (CDA) [1] (setting [4]), 7.2 ± 0.2 x 10^−3 s^−1 on Cytidine Deaminase (CDA) [1] (setting [5]), 7.4 ± 0.1 s^–1 on Cytidine Deaminase (CDA) [2] (setting [6]) and 7.4 ± 0.1 x 10^−3 s^−1 at Cytidine Deaminase (CDA) [2] (setting [7]). The t1/2 at Cytidine Deaminase (CDA) [1] (setting [5]) is 1.53 ± 0.083 min; on Cytidine Deaminase (CDA) [2] (setting [7]), 1.57 ± 0.033 min. Further, the “conversion to corresponding U analogue by CDA (HPLC)” value on Cytidine Deaminase (CDA) [3] is “complete conversion”.

As to `Nc1nc(=O)[nH]c2c([C@@H]3O[C@H](CO)[C@@H](O)[C@H]3O)snc12` [^tzC], the k1 worked out at 1.04e+06 ± 10000 M⁻¹ s⁻¹ at Cytidine Deaminase (CDA) [1] (absorption (Abs)) and 1.06e+06 ± 320000 M⁻¹ s⁻¹ at Cytidine Deaminase (CDA) [2] (emission (Em)). The k2 at Cytidine Deaminase (CDA) [1] (absorption (Abs)) came out at 3.2 ± 0.3 s⁻¹; at Cytidine Deaminase (CDA) [2] (emission (Em)), 4.6 ± 1.3 s⁻¹. Also, the “k−1” value on Cytidine Deaminase (CDA) [1] (absorption (Abs)) was found to be 0.104 s⁻¹; at Cytidine Deaminase (CDA) [2] (emission (Em)) it was 0.106 s⁻¹. Also, the Km on Cytidine Deaminase (CDA) [1] (absorption (Abs)) is 3.1 µM; at Cytidine Deaminase (CDA) [2] (emission (Em)), 4.4 µM. In addition, the kapp is listed as 3.3 ± 0.1 s^–1 at Cytidine Deaminase (CDA) [1] (setting [4]), 3.3 ± 0.1 x 10^−3 s^−1 at Cytidine Deaminase (CDA) [1] (setting [5]), 4.1 ± 0.1 s^–1 on Cytidine Deaminase (CDA) [2] (setting [6]) and 4.1 ± 0.1 x 10^−3 s^−1 at Cytidine Deaminase (CDA) [2] (setting [7]). For the same molecule, the figures for the t1/2 at Cytidine Deaminase (CDA) [1] (setting [5]) and at Cytidine Deaminase (CDA) [2] (setting [7]) were 3.5 ± 0.267 min and 2.83 ± 0.167 min, respectively. The “conversion to corresponding U analogue by CDA (HPLC)” value on Cytidine Deaminase (CDA) [3] is “complete conversion”.
